Experimental data as given in US6242199A, “Assays for growth hormone secretagogue receptors” (Merck & Co., Inc., priority 1998, dated 2001).

How the values were obtained:
swine Type II GHSR = experiment: Aequorin bioluminescence assay in Xenopus oocytes, swine Type II GHSR; assay type: cell-based; conditions: swine Type II-derived cRNA truncated in TM-6
Protocol: Xenopus laevis oocytes were isolated and injected using standard methods previously described by Arena, et. al. 1991, Mol. Pharmacol. 40, 368-374, which is hereby incorporated by reference. Adult female Xenopus Laevis frogs (purchased from Xenopus One, Ann Arbor, Mich.) were anesthetized with 0.17% tricaine methanesulfonate and the ovaries were surgically removed and placed in a 60 mm culture dish (Falcon) containing OR-2 medium without calcium (82.5 mM NaCl, 2 mM KCl, 2.5 mM sodium pyruvate, 1 mM MgCl2, 100 μ/ml penicillin, 1 mg/ml streptomycin, 5 mM HEPES, pH=7.5; ND-96 from Specialty Media, NJ). Ovarian lobes were broken open, rinsed several times, and oocytes were released from their sacs by collagenase A digestion (Boehringer-Mannheim; 0.2% for 2-3 hours at 18° C.) in calcium-free OR-2. […]
The ABA requires injection of library pool cRNA (25 ng/egg for pool sizes of 500 to 10,000) with aequorin cRNA (2 ng/egg) supplemented with the G-protein alpha subunit Gα11 (2 ng/egg). […] Polymerase chain reaction (PCR) was utilized to generate a DNA fragment corresponding to the open reading frame (ORF) of the aequorin cDNA with an optimized Kosak translational initiation sequence (Inouye, S. et. al., 1985, Proc. Natl. Acad. Sci. USA 82:3154-3158). […]

[1] = target: T1, growth hormone secretagogue receptor (GHSR), porcine anterior pituitary membranes (Sus scrofa, UniProt Q95254); experiment: [35S]-Compound A radioreceptor binding, porcine anterior pituitary membranes
T1 construct: Frozen anterior pituitary glands from male swine (50-80 Kg); from tissue; host or cells: anterior pituitary glands of male swine (50-80 kg), crude membranes
Protocol: Frozen anterior pituitary glands from male swine (50-80 Kg) or from the Wistar male rats (150-200 g) were homogenized in a tissue homogenizer in ice-cold buffer (50 mM Tris-HCl buffer, pH 7.4, 5 mM MgCl2, 2.5 mM EDTA, 0.1% bovine serum albumin and 30 μg/ml bacitracin). The homogenates were centrifuged for 5 min at 1,400×g and the resulting supernatants were then centrifuged at 34,000×g for 20 min. The pellets were resuspended in same buffer to a 1,500 μg protein/ml and stored at -80° C. Protein was determined by a Bio-Rad method (Bio-Rad Laboratories, Richmond, Calif.).
Aliquots were incubated at 20° C. for 60 min and bound radioligand was separated from free by filtration through GF/C filters pretreated with 0.5% of polyethylenimine in a Brandel cell harvester. […] Assays were carried out in triplicate and experiments repeated at least three times.

rat GHSR type Ia = experiment: Aequorin bioluminescence in transfected 293-AEQ17 (HEK-293) cells, rat GHSR; assay type: cell-based; conditions: three replicate samples; mobilization of intracellular calcium
Protocol: Functional activity of the ORF construct was assessed by transfecting (using lipofectamine; GIBCO/BRL) 5 μg of plasmid DNA into the aequorin expressing reporter cell line (293-AEQ17) cultured in 60 mm dishes. Following approximately 40 hours of expression the aequorin in the cells was charged for 2 hours with coelenterazine, the cells were harvested, washed and pelleted by low speed centrifugation into luminometer tubes. Functional activity was determined by measuring Compound A dependent mobilization of intracellular calcium and concommitant calcium induced aequorin bioluminescence.

T1 sequence (Q95254 whole entry): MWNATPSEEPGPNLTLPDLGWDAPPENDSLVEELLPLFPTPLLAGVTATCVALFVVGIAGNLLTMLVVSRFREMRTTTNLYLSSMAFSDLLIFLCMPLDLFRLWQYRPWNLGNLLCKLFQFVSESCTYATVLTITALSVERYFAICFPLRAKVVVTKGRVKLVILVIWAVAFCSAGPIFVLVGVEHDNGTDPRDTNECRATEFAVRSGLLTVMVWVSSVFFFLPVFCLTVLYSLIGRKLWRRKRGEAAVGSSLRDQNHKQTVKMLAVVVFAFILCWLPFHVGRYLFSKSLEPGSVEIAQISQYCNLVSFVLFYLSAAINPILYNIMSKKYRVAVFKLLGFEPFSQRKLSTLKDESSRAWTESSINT

## CC(C)(N)C(=O)N[C@H](COCc1ccccc1)C(=O)N1CCC2(CC1)CN(S(C)(=O)=O)c1ccccc12 [Compound A, (N-[1(R)-[1,2-dihydro-1-methanesulfonlylspiro[3H-indole-3,4'-piperidin]-1'-yl)carbonyl]-2-(phenylmethyloxy)-ethyl]-2-amino-2-methyl-propanamide]
Swine Type II GHSR
  response (in words): failed to give a response
[1]; absence of Mg2+, in comparison with control (10 mM Mg2+)
  specific binding of [35S]-Compound A detected in the absence of Mg2+: 15-25%
[1]; competition with [35S]-Compound A, read-out: inhibition constant, Ki
  Ki: 0.24 nM
[1]; porcine anterior pituitary membranes, Scatchard analysis, n=4
  concentration (Bmax): 6.3±0.6 fmol/mg of protein
[1]; porcine anterior pituitary membranes, Scatchard analysis, n=4, read-out: apparent dissociation constant (KD)
  Kd: 0.161 ± 0.011 nM
[1]; porcine membranes, nonspecific in 500 nM unlabeled Compound A
  specific binding of total binding: 65-85%
[1]; unlabeled competitor, FIG. 24
  displacement of / competition with [35S]-Compound A binding (in words): completely displaced
Rat GHSR type Ia
  Compound A induced luminescent response (in words): Compound A induced luminescent responses
